System: not listed separately
Assay: NMR rate studies: pseudo-first order reaction with N-acetylcysteine methyl ester
Format: physicochemical
Conditions: electrophile 10 mM, N-acetyl cysteine methyl ester 78 mM, 2:1 deuterated PBS:DMSO-d6, pD 8, NMR
From the text: We further validated the utility of electrophile 3 as a thiol-reactive tether by making a library of one hundred structurally diverse drug-like fragments 6-105 containing this electrophile. The library was constructed with an HBTU amide coupling with commercially available carboxylic acid fragments (FIG. 2A). The acids were selected with “rule of three” criteria^15 and a subsequent diversity analysis. We measured the reaction rates for the first fifty fragments to confirm that this library would have balanced cysteine reactivity and could be used for irreversible tethering (FIG. 2B).
N-Acetyl cysteine methyl ester was dissolved in 2:1 deuterated PBS:DMSO-d6 (78 mM) with 10 mM CH2Cl2 as an internal standard. The electrophile (10 mM) was then added immediately prior to acquiring spectra. H1 spectra were taken every 30 s for 30 min (or every 4 s for 5 min for highly reactive compounds 1c and 2a-c). The integrals of the vinyl peaks were used to determine the concentration of the electrophile over time. The natural logarithm of the concentration of the electrophile versus time was then plotted using GraphPad Prism software. The linear slope of this plot was used to determine the pseudofirst order rate constant. Deuterated PBS recipe: 20 mM Na3PO4, 50 mM NaCl in D2O was adjusted to pD 8 with DC1 solution.

Compound | k pseudo-first order
COC(=O)/C=C/CNC(=O)c1c(C)[nH]c2ccc(OC)cc12 [Compound 12, Methyl(E)-4-(5-methoxy-2-methyl-1H-indole-3-carboxamido)but-2-enoate] | 0.000654 s⁻¹
COC(=O)/C=C/CNC(=O)c1c[nH]c2ccc(OC)cc12 [Compound 13, Methyl(E)-4-(5-methoxy-1H-indole-3-carboxamido)but-2-enoate] | 0.0003582 s⁻¹
CCn1c(C)c(C(=O)NC/C=C/C(=O)OC)c2cc(OC)ccc21 [Compound 14, Methyl(E)-4-(1-ethyl-5-methoxy-2-methyl-1H-indole-3-carboxamido)but-2-enoate] | 0.0005016 s⁻¹
COC(=O)/C=C/CNC(=O)C1CC(=O)N(C)c2ccccc21 (stereo not shown) [Compound 15] | 0.0007733 s⁻¹
COC(=O)/C=C/CNC(=O)C1Cc2ccccc2CN1C (stereo not shown) [Compound 16] | 0.0006414 s⁻¹
COC(=O)/C=C/CNC(=O)c1sc(C(C)C)nc1C [Compound 17] | 0.0006156 s⁻¹
CCC(C(=O)NC/C=C/C(=O)OC)N1Cc2ccccc2C1=O (stereo not shown) [Compound 18] | 0.0006093 s⁻¹
COC(=O)/C=C/CNC(=O)CN(C)C1CCCC1 [Compound 20] | 0.0005603 s⁻¹
COC(=O)/C=C/CNC(=O)Cn1ncc2ccccc21 [Compound 21] | 0.0003327 s⁻¹
COC(=O)/C=C/CNC(=O)c1ccc(-c2ccc(C)o2)cc1 [Compound 23] | 0.0004979 s⁻¹
COC(=O)/C=C/CNC(=O)c1cnn(-c2ccccc2OC)c1 [Compound 24] | 0.0005202 s⁻¹
COC(=O)/C=C/CNC(=O)Cc1ccncc1 [Compound 25] | 0.0005202 s⁻¹
COC(=O)/C=C/CNC(=O)C1COc2c(cccc2OC)C1 (stereo not shown) [Compound 26] | 0.0006107 s⁻¹
COC(=O)/C=C/CNC(=O)c1cc(C)nc2ccc(C)cc12 [Compound 27] | 0.0006665 s⁻¹
COC(=O)/C=C/CNC(=O)c1ccc(OC)cc1 [Compound 28] | 0.00042 s⁻¹
COC(=O)/C=C/CNC(=O)c1ccnc(C)c1 [Compound 29] | 0.0004038 s⁻¹
COC(=O)/C=C/CNC(=O)c1ccc(CN2CCc3ccccc3C2)cc1 [Compound 30] | 0.0006579 s⁻¹
COC(=O)/C=C/CNC(=O)[C@@H]1CCCN1C(=O)C1CC1 [Compound 31] | 0.0005193 s⁻¹
COC(=O)/C=C/CNC(=O)c1cccc(Cl)n1 [Compound 33] | 0.0006348 s⁻¹
COC(=O)/C=C/CNC(=O)c1ccccc1Br [Compound 34] | 0.0007717 s⁻¹
COC(=O)/C=C/CNC(=O)c1cc(Br)ccc1N [Compound 35] | 0.0005755 s⁻¹

Compound | k pseudo-first order
COC(=O)/C=C/CNC(=O)C(CO)c1ccccc1 (stereo not shown) [Compound 36] | 0.00034 s⁻¹
COC(=O)/C=C/CNC(=O)Cn1nc(C)cc1C [Compound 37] | 0.0004493 s⁻¹
COC(=O)/C=C/CNC(=O)c1cc(Br)ccc1OC [Compound 38] | 0.0007728 s⁻¹
CCC(C(=O)NC/C=C/C(=O)OC)n1cccn1 (stereo not shown) [Compound 39] | 0.000651 s⁻¹
C=CCN1CC(C(=O)NC/C=C/C(=O)OC)CC1=O (stereo not shown) [Compound 40] | 0.0004793 s⁻¹
COC(=O)/C=C/CNC(=O)c1c(C)[nH]c2c1C(=O)CCC2 [Compound 41] | 0.0005635 s⁻¹
COC(=O)/C=C/CNC(=O)Cc1c(C)nn(-c2ccccc2)c1C [Compound 42] | 0.0005281 s⁻¹
COC(=O)/C=C/CNC(=O)c1c(C)n(C)c2ccc(OC)cc12 [Compound 43] | 0.0007616 s⁻¹
COC(=O)/C=C/CNC(=O)c1cc2c([nH]c1=O)CCCC2 [Compound 44] | 0.0006746 s⁻¹
COC(=O)/C=C/CNC(=O)c1c(C)nc2cc(C)ccn12 [Compound 45] | 0.0003961 s⁻¹
CCn1nc(C(C)C)cc1C(=O)NC/C=C/C(=O)OC [Compound 46] | 0.0007806 s⁻¹
COC(=O)/C=C/CNC(=O)c1c[nH]nc1-c1cccc(F)c1 [Compound 47] | 0.0006539 s⁻¹
COC(=O)/C=C/CNC(=O)C(C)n1cnc2ccccc21 (stereo not shown) [Compound 48] | 0.000468 s⁻¹
COC(=O)/C=C/CNC(=O)c1cnn(Cc2ccccc2)c1 [Compound 49] | 0.0004975 s⁻¹
COC(=O)/C=C/CNC(=O)c1n[nH]cc1Br [Compound 50] | 0.0006514 s⁻¹
COC(=O)/C=C/CNC(=O)c1ccccc1N(C)C(=O)c1ccco1 [Compound 51] | 0.0005048 s⁻¹
COC(=O)/C=C/CNC(=O)c1cc(C2CC2)nc2ccccc12 [Compound 52] | 0.0005984 s⁻¹
COC(=O)/C=C/CNC(=O)c1ccc(Cl)cn1 [Compound 53] | 0.0005521 s⁻¹
COC(=O)/C=C/CNC(=O)CNC(=O)c1ccccc1Br [Compound 54] | 0.0005048 s⁻¹
COC(=O)/C=C/CNC(=O)Cn1c(=O)cc(C)c2ccccc21 [Compound 55] | 0.000452 s⁻¹

Target: T1, human rhinovirus 3C protease (GST-HRV3C, PreScission protease) (Human rhinovirus 14, UniProt P03303)
T1 construct: made in house; host or cells: E. coli Rosetta (DE3)pLysS
T1 sequence (P03303 1538-1719, added parts left off): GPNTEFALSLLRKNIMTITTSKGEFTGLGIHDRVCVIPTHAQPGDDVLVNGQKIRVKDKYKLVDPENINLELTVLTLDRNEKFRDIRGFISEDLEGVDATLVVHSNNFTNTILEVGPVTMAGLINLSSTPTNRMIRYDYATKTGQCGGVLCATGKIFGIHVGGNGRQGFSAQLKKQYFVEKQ
Assay: Irreversible tethering counter-screen (ESI-MS) against HRV3C protease
Format: binding
Conditions: mixtures of ten fragments 100 μM each, 1 h
Experimental: FIG. 28A, FIG. 28B, FIG. 28C and FIG. 28D. Counterscreen of compound 6 against the deubiquitinase USPO8 and Human Rhinovirus (HRV) 3C protease, both of which have catalytic cysteines. Compound 6 at 100 μM in 1% DMSO was incubated with the catalytic domain of the indicated cysteine protease (10 μM) for 1 h, followed by gel filtration and whole protein ESI-MS.
To further test the specificity of the developed irreversible tethering system, we conducted a counter-screen of the same set of 100 compounds (10 mixtures of 10 compounds each) against three other enzymes: human rhinovirus 3C protease, the deubiquitinase USP08, and the E2 ubiquitin-conjugating enzyme UbcH7. […] The molecular weight of GST-HRV3C protease is 47566.72 Da and its amino acid sequence is provided as (SEQ ID NO:2).
10 μM of papain (Sigma P4762), UbcH7 (recombinantly expressed) or USPO8 (recombinantly expressed) in 50 mM HEPES 150 mM NaCl 0.1 mM EDTA pH 7.5 was treated with a mixture of ten fragments (Table S2) (10 mM DMSO stock solutions, final concentrations: 100 μM of each fragment, and 1% DMSO). The reaction mixture was incubated for 1 h or 4 h at 23° C. before being passed through Zeba gel filtration columns (Thermo, 7K MWCO) to remove unreacted fragments. The protein solution was then immediately analyzed by whole protein LC/ESI-MS.
Accurate-mass data were obtained on an Agilent 6210A LC-TOF mass spectrometer in positive ion mode using electrospray ionization. Samples were chromatographed on the LC-TOF instrument using a Poroshell 120 EC-C18 HPLC column (2.1*50 mm, 2.7 micron), an Agilent Series 1200 HPLC binary pump, and an Agilent Series 1200 autoinjector. The HPLC column was held at 45° C. and the autosampler was held at 8° C. Mobile Phase A was a solution of 0.1% formic acid in water:acetonitrile (19:1). Mobile Phase B was a solution of 0.1% formic acid in acetonitrile. The flow rate was set to 250 μL/min. The gradient used was 0% B for 2 minutes, ramping linearly to 90% B from 2 minutes to 5 minutes, holding at 90% B from 5 minutes to 7 minutes, and then returning to 0% B at 7.1 minutes. […]

Compound | labeling of HRV3C protease
COC(=O)/C=C/CNC(=O)c1cc2cc(Cl)cc(OC)c2o1 [Compound 98] | ~20%

Target: T2, NEDD4-1 HECT domain (Homo sapiens, UniProt P46934)
T2 construct: to elute NEDD4-1 HECT domain (50 mM HEPES, 150 mM NaCl, 0.1 mM EDTA 1 mM DTT); GST (N, cleaved yes); made in house; host or cells: E. coli BL21
T2 sequence (P46934 with tags, fused parts or gaps): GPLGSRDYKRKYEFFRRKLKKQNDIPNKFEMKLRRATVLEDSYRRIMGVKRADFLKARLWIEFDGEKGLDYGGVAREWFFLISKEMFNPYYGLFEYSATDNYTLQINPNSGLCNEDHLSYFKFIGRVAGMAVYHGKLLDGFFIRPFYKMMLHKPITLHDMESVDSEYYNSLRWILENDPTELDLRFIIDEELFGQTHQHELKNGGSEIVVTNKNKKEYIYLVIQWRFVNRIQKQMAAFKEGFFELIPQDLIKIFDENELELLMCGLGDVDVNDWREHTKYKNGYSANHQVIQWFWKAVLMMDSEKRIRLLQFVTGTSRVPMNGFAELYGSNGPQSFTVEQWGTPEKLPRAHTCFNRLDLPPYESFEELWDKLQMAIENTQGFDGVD
Assay: Covalent labeling of NEDD4-1 HECT domain (gel filtration, whole protein ESI-MS)
Format: binding
Conditions: compound 100 μM, NEDD4-1 HECT 10 μM, 4 h
Experimental: 10 μM of NEDD4-1 HECT domain in 50 mM HEPES 150 mM NaCl 0.1 mM EDTA 1 mM DTT pH 7.5 was treated with a mixture of ten fragments (from 10 mM each DMSO stock solution mixtures; final concentrations: 100 μM of each fragment, and 1% DMSO). Fragment structures and mixture compositions were the same as reported previously. The reaction mixture was incubated for 4 h at 23° C. before being passed through Zeba gel filtration columns (Thermo, 7K MWCO) to remove unreacted fragments. The protein solution was then immediately analyzed by whole protein LC/ESI-MS.
Accurate-mass data were obtained on an Agilent 6210A LC-TOF mass spectrometer in positive ion mode using electrospray ionization. Samples were chromatographed on the LC-TOF instrument using a Poroshell 120 EC-C18 HPLC column (2.1*50 mm, 2.7 micron), an Agilent Series 1200 HPLC binary pump, and an Agilent Series 1200 autoinjector. The HPLC column was held at 45° C. and the autosampler was held at 8° C. Mobile Phase A was a solution of 0.1% formic acid in water:acetonitrile (19:1). Mobile Phase B was a solution of 0.1% formic acid in acetonitrile. The flow rate was set to 250 μL/min. The gradient used was 0% B for 2 minutes, ramping linearly to 90% B from 2 minutes to 5 minutes, holding at 90% B from 5 minutes to 7 minutes, and then returning to 0% B at 7.1 minutes. The column was allowed to equilibrate for 2.7 minutes before the next injection was initiated. The eluent from the column was diverted to waste for the first 2 minutes. The spectra were acquired from 301 to 3200 daltons using a gas temperature of 340° C., a gas flow of 7 liters/min, and the nebulizer gas at 35 psi. The following voltages were used: capillary 4200 V, fragmentor 230V, skimmer 64V, and octapole RF peak 250V. Spectra were acquired at a rate of 1 spectra/sec. The data was processed using MassHunter software version B.02.00. Maximum entropy deconvolutions were performed with a Mass Step of 1, S/N Threshold of 30, Average Mass at 90% of Peak Height, and 5 Charge States Minimum.
10 μM of NEDD4-1 HECT domain in 50 mM HEPES 150 mM NaCl 0.1 mM EDTA 1 mM DTT pH 7.5 was treated with 1 mM of inhibitor 1 or 2 (from 100 mM DMSO stock solution; final concentrations: 1 mM of inhibitor, 1% DMSO, and 0.2% CHAPS to solubilize the inhibitors at 1 mM). The reaction mixture was incubated for 4 h at 23° C. before being passed through Zeba gel filtration columns (Thermo, 7K MWCO) to remove unreacted inhibitor. The protein solution was then immediately used for crystallization or enzymatic assay.

labeling of NEDD4-1 HECT domain (qualitative) | Compound
did not label NEDD4-1 | CCOc1ccc2c(c1)c(C(=O)NC/C=C/C(=O)OC)c(C)n2C [Compound 10, Methyl(E)-4-(5-ethoxy-1,2-dimethyl-1H-indole-3-carboxamido)but-2-enoate]
